Source: patent US20100172854A1, “ANTIBACTERIAL FORMULATIONS” (priority 2007, published 2010)
Converted amounts (≈) assume the structure as drawn.

Tests used:
P. acnes PRP-003 = assay: Agar dilution MIC assay; type: cell-based, Propionibacterium acnes; conditions: Cutibacterium acnes, PRP003, resistance phenotype Tet
Protocol: (§1) The propionibacteria were cultured and maintained on Wilkins-Chalgren Anaerobe Medium (agar and broth) at pH 6.0; all cultures were incubated anaerobically at 37° C. for 72 hours.
(§2) This is a standard international method for quantitatively assessing the antimicrobial activity of a compound in a solid medium. The test compound was prepared to 40× the highest concentration required (e.g. 10 mg/ml for a final concentration of 250 μg/ml) and a series of doubling dilutions were performed in a suitable solvent. A set amount of these antimicrobial stock solutions was then added to molten agar medium (ca. 55° C.), mixed thoroughly, poured into sterile Petri dishes and allowed to cool/set. The culture medium was as described above.
(§3) A Multipoint™ Inoculator (AQS Manufacturing Ltd, UK) was used to inoculate the plates by spotting the inocula onto the surface of the agar, delivering approximately 1 to 2 μl per spot (yielding 10^5 CFU (colony forming units) per spot).
(§4) The plate(s) were then incubated under the conditions described above, following which they were examined visually for signs of bacterial growth. The MIC value was ascertained when there was a marked reduction in, or total loss of, growth on the test plate at the lowest concentration as compared to that of the growth on the control plate.
(§5) The assays were conducted in triplicate and included a positive control (culture medium, diluting solvent and inoculum).

P. acnes PPR-007 = assay: Agar dilution MIC assay; type: cell-based, Propionibacterium acnes; conditions: Cutibacterium acnes, PPR007
Protocol: as §1, §2, §3, §4, §5

P. acnes PRP-010 = assay: Agar dilution MIC assay; type: cell-based, Propionibacterium acnes; conditions: Cutibacterium acnes, PRP010, resistance phenotype MLSK
Protocol: as §1, §2, §3, §4, §5

P. acnes PRP-026 = assay: Agar dilution MIC assay; type: cell-based, Propionibacterium acnes; conditions: Cutibacterium acnes, PRP026, resistance phenotype MLS
Protocol: as §1, §2, §3, §4, §5

P. acnes PRP-053 = assay: Agar dilution MIC assay; type: cell-based, Propionibacterium acnes; conditions: Cutibacterium acnes, PRP053, resistance phenotype Tet/MLS
Protocol: as §1, §2, §3, §4, §5

P. acnes PRP-102 = assay: Agar dilution MIC assay; type: cell-based, Propionibacterium acnes; conditions: Cutibacterium acnes, PRP102, resistance phenotype Tet/MLS
Protocol: as §1, §2, §3, §4, §5

P. acnes PRP-039 = assay: Agar dilution MIC assay; type: cell-based, Propionibacterium acnes; conditions: Cutibacterium acnes, PRP039, resistance phenotype Tet/MLS
Protocol: as §1, §2, §3, §4, §5

P. acnes PRP-059 = assay: Agar dilution MIC assay; type: cell-based, Propionibacterium acnes; conditions: Cutibacterium acnes, PRP059, resistance phenotype MLS
Protocol: as §1, §2, §3, §4, §5

P. acnes PRP-017 = assay: Agar dilution MIC assay; type: cell-based, Propionibacterium acnes; conditions: Cutibacterium acnes, PRP017, resistance phenotype MLS
Protocol: as §1, §2, §3, §4, §5

P. acnes PRP-004 = assay: Agar dilution MIC assay; type: cell-based, Propionibacterium acnes; conditions: Cutibacterium acnes, PRP004, resistance phenotype Tet
Protocol: as §1, §2, §3, §4, §5

P. acnes PRP-046 = assay: Agar dilution MIC assay; type: cell-based, Propionibacterium acnes; conditions: Cutibacterium acnes, PRP046, resistance phenotype None
Protocol: as §1, §2, §3, §4, §5

P. acnes PRP-008 = assay: Agar dilution MIC assay; type: cell-based, Propionibacterium acnes; conditions: Cutibacterium acnes, PRP008, resistance phenotype Clin
Protocol: as §1, §2, §3, §4, §5

P. acnes PRP-101 = assay: Agar dilution MIC assay; type: cell-based, Propionibacterium acnes; conditions: Cutibacterium acnes, PRP101, resistance phenotype Tet/MLS
Protocol: as §1, §2, §3, §4, §5

P. acnes PRP-068 = assay: Agar dilution MIC assay; type: cell-based, Propionibacterium acnes; conditions: Cutibacterium acnes, PRP068, resistance phenotype Ery
Protocol: as §1, §2, §3, §4, §5

P. acnes PRP-023 = assay: Agar dilution MIC assay; type: cell-based, Propionibacterium acnes; conditions: Cutibacterium acnes, PRP023, resistance phenotype MLSK
Protocol: as §1, §2, §3, §4, §5

P. acnes PRP-002 = assay: Agar dilution MIC assay; type: cell-based, Propionibacterium acnes; conditions: Cutibacterium acnes, PRP002, resistance phenotype Tet/MLS
Protocol: as §1, §2, §3, §4, §5

P. granulosum PRP-044 = assay: Agar dilution MIC assay; type: cell-based; conditions: Propionibacterium, PRP044, resistance phenotype MLS
Protocol: as §1, §2, §3, §4, §5

P. granulosum PRP-055 = assay: Agar dilution MIC assay; type: cell-based; conditions: Propionibacterium, PRP055, resistance phenotype None
Protocol: as §1, §2, §3, §4, §5

[1] = tested on: Propionibacterium granulosum NCTC 11865; assay: Agar dilution MIC assay; type: cell-based; conditions: NCTC11865, resistance phenotype None
Protocol: as §1, §2, §3, §4, §5

P. granulosum PRP-005 = assay: Agar dilution MIC assay; type: cell-based; conditions: Propionibacterium, PRP005, resistance phenotype MLSK
Protocol: as §1, §2, §3, §4, §5

P. granulosum PRP-019 = assay: Agar dilution MIC assay; type: cell-based; conditions: Propionibacterium, PRP019, resistance phenotype MLSK
Protocol: as §1, §2, §3, §4, §5

P. granulosum PRP-043 = assay: Agar dilution MIC assay; type: cell-based; conditions: Propionibacterium, PRP043, resistance phenotype MLS
Protocol: as §1, §2, §3, §4, §5

[2] = tested on: Propionibacterium acnes NCTC 737; assay: Agar dilution MIC assay; type: cell-based; conditions: Cutibacterium acnes, NCTC737, resistance phenotype None
Protocol: as §1, §2, §3, §4, §5

P. granulosum PRP-021 = assay: Agar dilution MIC assay; type: cell-based; conditions: Propionibacterium, PRP021, resistance phenotype MLS
Protocol: as §1, §2, §3, §4, §5

[3] = tested on: Porphyromonas gingivalis ATCC BAA-308; assay: MBC assay; type: cell-based
Protocol: (§6) The P. gingivalis strains were cultured and maintained on Wilkins-Chalgren Anaerobe Medium (agar and broth) at pH 7.0; all cultures were incubated anaerobically at 37° C. for 5-7 days.
(§7) This assay, normally carried out after an MIC assay, determines the minimum concentration of a compound that is lethal to the micro-organism being tested.
(§8) These samples were then individually sub-cultured on antibiotic-free agar medium, under the incubation conditions described above. Following incubation they were examined visually for microbial growth.

[4] = tested on: Porphyromonas gingivalis ATCC 53978; assay: MBC assay; type: cell-based
Protocol: as §6, §7, §8

[5] = tested on: Porphyromonas gingivalis NCTC 11834; assay: MBC assay; type: cell-based
Protocol: as §6, §7, §8

In the case of Cc1cc(Cc2cc(C)cc(C(C)(C)C)c2O)c(O)c(C(C)(C)C)c1 [AO 2246, 2,2′-methylene-bis(4-methyl-6-tert-butylphenol)], the MIC (P. acnes PRP-003) is reported as 3.9 µg/mL (≈ 11.5 µM), the MIC (P. acnes PPR-007) is reported as 1.95 µg/mL (≈ 5.73 µM) and the MIC (P. acnes PRP-010) is reported as 3.9 µg/mL (≈ 11.5 µM). For the same molecule, the MIC (P. acnes PRP-026) was 3.9 µg/mL (≈ 11.5 µM), the MIC (P. acnes PRP-053) was 3.9 µg/mL (≈ 11.5 µM) and the MIC (P. acnes PRP-102) was 3.9 µg/mL (≈ 11.5 µM). For the same molecule, the MIC (P. acnes PRP-039) was 3.9 µg/mL (≈ 11.5 µM), the MIC (P. acnes PRP-059) was 3.9 µg/mL (≈ 11.5 µM) and the MIC (P. acnes PRP-017) was 3.9 µg/mL (≈ 11.5 µM). For the same molecule, the MIC (P. acnes PRP-004) was 3.9 µg/mL (≈ 11.5 µM), the MIC (P. acnes PRP-046) was 3.9 µg/mL (≈ 11.5 µM) and the MIC (P. acnes PRP-008) was 1.95 µg/mL (≈ 5.73 µM). The MIC (P. acnes PRP-101) was 3.9 µg/mL (≈ 11.5 µM), the MIC (P. acnes PRP-068) was 3.9 µg/mL (≈ 11.5 µM) and the MIC (P. acnes PRP-023) was 3.9 µg/mL (≈ 11.5 µM). The MIC (P. acnes PRP-002) was 3.9 µg/mL (≈ 11.5 µM), the MIC (P. granulosum PRP-044) was 3.9 µg/mL (≈ 11.5 µM) and the MIC (P. granulosum PRP-055) was 3.9 µg/mL (≈ 11.5 µM). The MIC [1] was 1.95 µg/mL (≈ 5.73 µM), the MIC (P. granulosum PRP-005) was 3.9 µg/mL (≈ 11.5 µM) and the MIC (P. granulosum PRP-019) was 3.9 µg/mL (≈ 11.5 µM). It also gave an MIC (P. granulosum PRP-043) of 1.95 µg/mL (≈ 5.73 µM), an MIC [2] of 3.9 µg/mL (≈ 11.5 µM) and an MIC (P. granulosum PRP-021) of 3.9 µg/mL (≈ 11.5 µM). The “MIC/MBC Ratio” value [3] was 1, the MBC ([3]; ATCCBAA308) was 3.9 µg/mL (≈ 11.5 µM) and the MBC [4] was 1.95 µg/mL (≈ 5.73 µM). The “MIC/MBC Ratio” value [4] was 0.5, the “MIC/MBC Ratio” value [5] was 1 and the MBC ([5]; NCTC11834) was 3.9 µg/mL (≈ 11.5 µM).
